The target of this test is T1, Multidrug efflux pump subunit AcrB (Escherichia coli (strain B / BL21-DE3), UniProt P31224).
T1 sequence (P31224 whole entry): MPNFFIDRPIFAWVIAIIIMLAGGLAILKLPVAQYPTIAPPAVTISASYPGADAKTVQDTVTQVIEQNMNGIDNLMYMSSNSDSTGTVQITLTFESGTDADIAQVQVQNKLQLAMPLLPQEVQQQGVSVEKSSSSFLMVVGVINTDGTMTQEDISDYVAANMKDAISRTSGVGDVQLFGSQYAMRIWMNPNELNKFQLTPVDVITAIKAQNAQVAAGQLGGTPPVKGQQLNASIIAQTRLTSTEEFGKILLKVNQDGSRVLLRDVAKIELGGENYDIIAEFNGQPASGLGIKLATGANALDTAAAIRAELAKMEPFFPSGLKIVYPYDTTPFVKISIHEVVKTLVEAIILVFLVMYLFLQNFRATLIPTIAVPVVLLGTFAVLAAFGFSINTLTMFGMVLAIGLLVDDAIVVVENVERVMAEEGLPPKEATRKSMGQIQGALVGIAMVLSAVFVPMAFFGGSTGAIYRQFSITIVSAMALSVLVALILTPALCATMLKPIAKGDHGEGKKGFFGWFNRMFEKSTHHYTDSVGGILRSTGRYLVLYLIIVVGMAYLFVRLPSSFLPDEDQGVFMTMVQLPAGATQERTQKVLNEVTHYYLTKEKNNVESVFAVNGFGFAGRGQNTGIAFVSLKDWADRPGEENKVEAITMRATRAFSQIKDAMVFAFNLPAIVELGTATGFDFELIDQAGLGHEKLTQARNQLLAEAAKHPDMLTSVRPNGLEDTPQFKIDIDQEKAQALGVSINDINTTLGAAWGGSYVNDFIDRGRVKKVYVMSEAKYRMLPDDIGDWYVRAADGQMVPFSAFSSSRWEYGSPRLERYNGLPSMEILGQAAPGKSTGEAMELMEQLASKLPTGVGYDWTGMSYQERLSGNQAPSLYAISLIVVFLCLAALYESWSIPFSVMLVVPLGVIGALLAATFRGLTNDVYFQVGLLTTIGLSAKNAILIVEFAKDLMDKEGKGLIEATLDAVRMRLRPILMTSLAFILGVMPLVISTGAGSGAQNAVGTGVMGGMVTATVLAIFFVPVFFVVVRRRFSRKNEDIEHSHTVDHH
The experiment in a line: Binding Assay. An excerpt: Binding of inhibitors and substrates to immobilized AcrB.

Where a SMILES comes first, the peptide text is derived from it. [ ]: non-standard residue; d: D form. The star is where a group is joined. ξ: configuration not given here. ξR = N=C(N)NCCCC(N)C(=O)O; βNA = c1ccc2cc(N*)ccc2c1

A word on the Kd: it is the free concentration of one partner at which half of the binding sites on the other are occupied at equilibrium, for simple one-to-one binding.

The molecule `CO[C@@H]1[C@@H](OC(N)=O)[C@@H](O)[C@H](Oc2ccc3c(O)c(NC(=O)c4ccc(O)c(CC=C(C)C)c4)c(=O)oc3c2C)OC1(C)C` [Coumarin-Based, DNA Gyrase Inhibitor] gave a Kd (pH 7.5) of 530 µM.
For the molecule `NC(N)=NCCCC(NC(=O)[C@@H](N)Cc1ccccc1)C(=O)Nc1ccc2ccccc2c1` (stereo partly drawn) [MC-207,110] (H-Phe-[ξR]-βNA), the Kd reads like this: (pH 6) 110 µM; (pH 7.5) 590 µM.

For the origin of these results see BindingDB's records for doi:10.1016/j.chembiol.2011.02.011 (University of Oklahoma, 2011).
